Columns and labels:
[1] = biological target: T1, human-derived cannabinoid CB2 receptor (Homo sapiens, UniProt P34972); assay: Inhibiting activity against cannabinoid CB2 receptor ([3H]WIN-55,212-2 binding); conditions: cell membranes expressing human-derived cannabinoid CB2 receptor, ligand [3H]WIN-55,212-2, 37° C. 90 minutes
T1 construct: expressed in transfected cells
Procedure: (§1) Each of 100 μl of a modified HEPES buffer was added to each well, to which the compound (50, 500, 1500, 5000, 15000 μM) of the present invention dissolved in DMSO and a positive control, R(+)-WIN-55, 212-2 (0.05, 0.25, 0.5, 2.5, 5 nM) were added in an amount of 5 μl, respectively. Thereto, each of 50 μl of a cannabinoid CB2 receptor ligand, [^3H]WIN-55, 212-2 was added, and each of 100 μl of a modified Tris-HCl buffer having cell membranes in which a human-derived cannabinoid CB2 receptor is expressed was added. After incubating at 37° C. for 90 minutes, the resultants were filtered and washed 3 times. The number of cell membranes bound with an isotope was calculated by means of β-ray measurement.

[2] = biological target: T2, human-derived guanylate cyclase (Homo sapiens, UniProt Q02153); assay: Activity against guanylate cyclase (cGMP production, EIA); type: biochemical; conditions: Sf9 lysate with human-derived guanylate cyclase, antagonistic activity vs 30 μM sodium nitroprusside, cGMP by EIA
T2 construct: made in house; host or cells: Sf9 insect cells (lysate used)
T2 sequence (Q02153 1-619): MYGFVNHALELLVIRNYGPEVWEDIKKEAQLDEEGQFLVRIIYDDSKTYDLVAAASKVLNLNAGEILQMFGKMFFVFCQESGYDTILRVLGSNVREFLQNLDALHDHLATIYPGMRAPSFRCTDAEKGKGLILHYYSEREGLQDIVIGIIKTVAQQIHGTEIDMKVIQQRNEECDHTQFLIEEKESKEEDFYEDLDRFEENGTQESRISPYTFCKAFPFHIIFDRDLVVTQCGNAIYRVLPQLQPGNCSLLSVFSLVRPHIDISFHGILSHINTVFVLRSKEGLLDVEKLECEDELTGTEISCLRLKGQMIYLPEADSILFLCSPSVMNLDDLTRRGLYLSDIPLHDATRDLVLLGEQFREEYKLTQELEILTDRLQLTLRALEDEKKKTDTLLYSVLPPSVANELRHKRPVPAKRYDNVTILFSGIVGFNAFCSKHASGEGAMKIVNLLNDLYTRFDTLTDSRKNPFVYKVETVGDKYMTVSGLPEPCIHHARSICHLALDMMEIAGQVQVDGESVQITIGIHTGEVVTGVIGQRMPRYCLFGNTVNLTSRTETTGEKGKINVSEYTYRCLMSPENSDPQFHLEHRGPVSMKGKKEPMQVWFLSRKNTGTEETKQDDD
T2 sequence (Q02108 1-690 partner): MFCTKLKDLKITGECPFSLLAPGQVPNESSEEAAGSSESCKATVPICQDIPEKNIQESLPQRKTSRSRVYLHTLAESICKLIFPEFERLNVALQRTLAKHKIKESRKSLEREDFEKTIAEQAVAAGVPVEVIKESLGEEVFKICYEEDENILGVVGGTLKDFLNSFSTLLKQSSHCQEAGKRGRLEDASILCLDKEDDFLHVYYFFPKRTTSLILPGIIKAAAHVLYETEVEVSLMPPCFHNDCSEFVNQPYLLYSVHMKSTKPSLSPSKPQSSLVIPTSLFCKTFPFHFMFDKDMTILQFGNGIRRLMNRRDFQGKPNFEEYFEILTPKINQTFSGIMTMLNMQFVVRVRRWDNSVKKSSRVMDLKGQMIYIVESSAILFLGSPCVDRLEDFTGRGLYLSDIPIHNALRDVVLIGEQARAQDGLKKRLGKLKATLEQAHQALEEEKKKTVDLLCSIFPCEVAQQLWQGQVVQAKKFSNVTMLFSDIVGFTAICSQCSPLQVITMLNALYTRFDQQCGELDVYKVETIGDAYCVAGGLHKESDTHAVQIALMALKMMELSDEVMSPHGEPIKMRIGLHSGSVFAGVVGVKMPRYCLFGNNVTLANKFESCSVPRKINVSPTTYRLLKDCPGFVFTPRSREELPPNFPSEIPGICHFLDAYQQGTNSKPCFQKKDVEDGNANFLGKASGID
Procedure: Plasmid in which a human-derived guanylate cyclase is expressed was transfected to Sf9 insect cells, followed by proliferation and then lysis. The compound (1, 10, 30, 100, 300 μM) of the present invention dissolved in DMSO and a positive control, ODQ (1H-[1,2,4]oxadiazolo[4,3-a]quinoxalin-1-one, 0.5, 0.1, 0.05, 0.01, 0.005 μM) were added to each well, to which guanylate cyclase (the lysed solution) which is mixed in a modified Tris-HCl buffer was added until its final concentration became to 0.013 μg/ml. After incubating at 37° C. for 20 minutes, 1N HCl was added to end the reaction.
After removing the guanylate cyclase, an amount of cGMP produced from the reaction was subject to quantitative measurement using an EIA kit. The amount of cGMP increases as the guanylate cyclase converting GTP to cGMP is activated. The activation of the guanylate cyclase was calculated based on the assumption that the result of sodium nitroprusside (30 μM), an agonist of the guanylate cyclase was 100%. The antagonistic activity against the guanylate cyclase was calculated based on the assumption that the result when treated only with 30 μM of sodium nitroprusside was 100% compared to when treated with both sodium nitroprusside and a drug.

[3] = test system: visceral hypersensitivity in colitis-induced rats; assay: Suppressing effect of visceral pain in CRD (colorectal distension) model; type: in vivo, Sprague-Dawley male rats; conditions: CRD test about 1 hour after dosing
Procedure: To evaluate the suppressing effect of the separated (6E,12E)-3-hydroxytetradeca-6,12-dien-8,10-diyn-1-yl acetate on the visceral hypersensitivity, a Colorectal Distension (CRD) test that has been often used in the evaluation of drugs for IBS was conducted as follows (see J H. La et al., World J. Gastroenterol. Dec., 9(12): p 2791-2795, 2003).
250 to 300 g of Sprague-Dawley male rats (Charles River) were used for the CRD test. Two rats per one cage were reared in a room of 25° C., humidity 50%, and day-night 12:12 hours of cycle. Rats were freely provided with drink water and food, and were adapted to the room condition for 5 days, followed by inducing colitis. […]
A 2 cm-long rubber balloon was inserted into the rectum of each rat, and was filled with 37° C-warmed water in stages, from 0.1 to 1.0 ml. The appearing pain reactions of rats were recorded. The specific behaviors of CRD test animals were represented with AWR (abdominal withdrawal reflex), which was indirectly and quantitatively analyzed by AWR scores given on each behavior, and the AWR scores were used for identifying the abdominal pain reaction. […]
The presence of visceral hypersensitivity was checked in CRD rats 7 days after inducing colitis. […] Student's t-test (p<0.01 (**) or p<0.001 (***)) was used for statistical approach, and significance relative to the vehicle-administered group was detected. […]

[4] = biological target: T3, human-derived NK2 receptor (Homo sapiens, UniProt P21452); assay: Inhibiting activity against NK2 receptor ([3H]SR-48968 competitive binding); conditions: cell membranes expressing human-derived NK2 receptor, ligand [3H]SR-48968, 25° C. 90 minutes
T3 construct: expressed in transfected cells
T3 sequence (P21452 1-398): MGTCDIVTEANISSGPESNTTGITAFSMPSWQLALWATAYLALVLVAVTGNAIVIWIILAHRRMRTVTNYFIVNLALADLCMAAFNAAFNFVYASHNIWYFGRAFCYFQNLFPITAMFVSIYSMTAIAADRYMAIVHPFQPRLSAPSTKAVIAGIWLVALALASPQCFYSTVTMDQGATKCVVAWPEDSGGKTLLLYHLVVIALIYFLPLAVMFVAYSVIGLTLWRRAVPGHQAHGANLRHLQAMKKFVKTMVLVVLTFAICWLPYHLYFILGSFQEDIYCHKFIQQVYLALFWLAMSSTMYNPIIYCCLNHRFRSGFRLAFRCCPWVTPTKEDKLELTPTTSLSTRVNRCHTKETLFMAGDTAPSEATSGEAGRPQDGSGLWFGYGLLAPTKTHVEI
Procedure: Each of 100 μl of a modified HEPES buffer was added to each well, to which the compound (50, 500, 1500, 5000, 15000 μM) dissolved in DMSO and a positive control, MEN-10,376 (0.5, 2.5, 5, 25, 50 μM) were added in an amount of 5 μl, respectively. Thereto, each of 50 μl of a NK2 receptor ligand, [3H]SR-48968 was added, and each of 100 μl of a modified HEPES buffer having cell membranes in which a human-derived NK2 receptor is expressed was added. After incubating with stirring (200 rpm) at 25° C. for 90 minutes, the resultants were filtered and washed 3 times.
The number of cell membranes bound with an isotope ([^3H]SR-48968) was calculated by means of […] measurement. At this time, as a test material is strongly bound with the receptor, the ligand [^3H]SR-48968 is not bound and measured values decrease (competitive bonding). The value for the well added with only the ligand was represented as “0% inhibition”, and the well having no ligand, as “100% inhibition’, and the inhibition rate was measured depending on the amount of drug concentration.

[5] = biological target: T4, human-derived motilin receptor (Homo sapiens, UniProt O43193); assay: Inhibiting activity against motilin receptor (radioligand binding); conditions: cell membranes expressing human-derived motilin receptor, 25° C. 150 minutes
T4 construct: expressed in transfected cells
Procedure: as §1, with “Tris-HCl” for “HEPES”, “motilin (2.5, 5, 25, 50, 250 μM)” for “R(+)-WIN-55, 212-2 (0.05, 0.25, 0.5, 2.5, 5 nM)”, “motilin” for “cannabinoid CB2”, “[…]” for “[^3H]WIN-55, 212-2”, “25°” for “37°”, “150” for “90”

[6] = biological target: T5, human-derived melanocortin MC1 receptor (Homo sapiens, UniProt Q01726); assay: Inhibiting activity against melanocortin MC1 receptor ([125I]NDP-a-MSH binding); conditions: cell membranes expressing human-derived melanocortin MC1 receptor, ligand [125I]NDP-a-MSH, 37° C. 120 minutes
T5 construct: expressed in transfected cells
Procedure: Each of 100 μl of a modified HEPES-KOH buffer was added to each well, to which the compound (50, 500, 1500, 5000, 15000 μM) of the present invention dissolved in DMSO and a positive control, NDP-a-MSH (0.25, 0.5, 2.5, 5, 25 nM) were added in an amount of 5 μl, respectively. Thereto, each of 50 μl of a melanocortin MC1 receptor ligand, [^125l] NDP-a-MSH was added, and each of 100 μl of a modified Tris-HCl buffer having cell membranes in which a human-derived melanocortin MC1 receptor is expressed was added. After incubating at 37° C. for 120 minutes, the resultants were filtered and washed 3 times. The number of cell membranes bound with an isotope was calculated by means of β-ray measurement.

T5 sequence (Q01726 whole entry): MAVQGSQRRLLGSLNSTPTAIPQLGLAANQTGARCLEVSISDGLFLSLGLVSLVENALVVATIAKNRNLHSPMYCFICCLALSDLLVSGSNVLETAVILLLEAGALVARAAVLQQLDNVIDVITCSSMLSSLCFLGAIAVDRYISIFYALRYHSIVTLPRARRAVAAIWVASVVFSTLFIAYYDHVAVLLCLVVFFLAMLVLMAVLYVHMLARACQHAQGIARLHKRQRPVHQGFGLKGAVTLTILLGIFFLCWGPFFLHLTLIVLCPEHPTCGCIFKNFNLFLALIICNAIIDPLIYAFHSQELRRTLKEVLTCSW
T1 sequence (P34972 whole entry): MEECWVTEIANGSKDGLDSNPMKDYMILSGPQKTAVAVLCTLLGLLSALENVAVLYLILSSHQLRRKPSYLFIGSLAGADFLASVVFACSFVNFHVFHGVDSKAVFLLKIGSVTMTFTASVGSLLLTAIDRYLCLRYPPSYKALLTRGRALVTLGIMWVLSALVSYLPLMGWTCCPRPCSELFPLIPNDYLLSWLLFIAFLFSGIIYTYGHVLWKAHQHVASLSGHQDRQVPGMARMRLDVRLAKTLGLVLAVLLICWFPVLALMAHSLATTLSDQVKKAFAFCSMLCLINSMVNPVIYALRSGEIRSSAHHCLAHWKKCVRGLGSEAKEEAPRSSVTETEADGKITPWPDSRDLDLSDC
T4 sequence (O43193 whole entry): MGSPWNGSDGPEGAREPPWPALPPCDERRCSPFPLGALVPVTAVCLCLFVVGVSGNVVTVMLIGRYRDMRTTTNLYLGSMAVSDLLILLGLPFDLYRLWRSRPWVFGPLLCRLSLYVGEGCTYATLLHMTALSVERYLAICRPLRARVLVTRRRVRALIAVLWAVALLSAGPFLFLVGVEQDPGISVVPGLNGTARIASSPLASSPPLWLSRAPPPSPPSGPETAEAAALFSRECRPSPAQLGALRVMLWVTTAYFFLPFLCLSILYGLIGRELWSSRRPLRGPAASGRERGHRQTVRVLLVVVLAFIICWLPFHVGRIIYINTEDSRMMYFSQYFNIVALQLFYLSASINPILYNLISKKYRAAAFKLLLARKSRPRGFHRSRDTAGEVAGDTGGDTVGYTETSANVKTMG

For `C/C=C/C#CC#C/C=C/CCC(O)CCOC(C)=O` (stereo not shown) [(6E,12E)-3-hydroxytetradeca-6,12-dien-8,10-diyn-1-yl acetate], the IC50 [1] was 45 µM, the IC50 [2] was 18.9 µM and the “suppressing effect against visceral hypersensitivity relative to the vehicle group (AWR score / AUC, FIG. 2)” value ([3]; 100 mg/kg orally, Student's t-test) was “significant suppressing effect against visceral hypersensitivity”. For the same compound, the “suppressing effect against visceral pain (AWR score / AUC, FIG. 2)” value ([3]; 10, 30 and 100 mg/kg orally) was “suppressing effect against visceral pain occurred in visceral hypersensitivity as its concentration increased”, the IC50 [4] was 30.6 µM and the IC50 [5] was 29.1 µM. It also gave an IC50 [6] of 133 µM.

Reference: patent US20140213647A1, “COMPOUND USEFUL FOR PREVENTING OR TREATING IRRITABLE BOWEL SYNDROME AND COMPOSITION INCLUDING SAME” (SK CHEMICALS CO., LTD., priority 2011, published 2014)
